{
  "source": "the NIST ThermoML archive (doi:10.1016/j.jct.2013.08.012)",
  "assay": "molar enthalpy of vaporization or sublimation",
  "conditions": "298.15 K; Crystal; Static calorimetry",
  "note": "Numbers after ± are expanded uncertainties.",
  "data": [
    {"smiles": "O=C1Cc2ccccc2O1", "note": "[2-coumaranone]", "values": [
      {"measurement": "molar enthalpy", "result": "78.7 ± 1.7", "unit": "kJ/mol"}
    ]},
    {"smiles": "O=C1COc2ccccc21", "note": "[3-coumaranone]", "values": [
      {"measurement": "molar enthalpy", "result": "85.8 ± 1.7", "unit": "kJ/mol"}
    ]}
  ]
}
